Counter-ions that a name gives are not always drawn. Like-named read-outs stand apart in the source and are kept apart here.

27 compounds from patent US9371320B2, “Heterocyclic compound” (TAKEDA PHARMACEUTICAL COMPANY LIMITED, priority 2012, dated 2016) can be followed below.

Experiment [1] deals with T1, JAK1 (Homo sapiens, UniProt P23458).
T1 construct: purchased Invitrogen
Kind of experiment: JAK1 enzyme inhibition test (LANCE method). The format is biochemical. The settings on record: for inhibition at 1 µM: test compound 1 μM, read-out: Inhibitory rate (%) JAK1 1 μM; for inhibition at 10 µM: read-out: Inhibitory rate (%) JAK1 10 μM. An outline of the steps:
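TR-FRET (LANCE) kinase assay using JAK1 at 187.5 ng/mL, ULight-JAK1 peptide at 300 nM and ATP at 150 μM, given as solution concentrations before mixing. Buffer was 50 mM HEPES pH 7.5 with 10 mM MgCl2 and 2 mM DTT, and the reaction ran 1 h at room temperature. Eu anti-phosphotyrosine signal at 665 nm was expressed relative to a no-enzyme well, taken as 100% inhibition.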

Experiment [2] has as its target T2, Tyk2 (Homo sapiens, UniProt P29597).
T2 construct: purchased Invitrogen
Kind of experiment: Tyk2 enzyme inhibition test (LANCE method). As to conditions: for inhibition at 1 µM: test compound 1 μM, read-out: Inhibitory rate (%) Tyk2 1 μM. The format is biochemical. Put shortly:
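Recombinant Tyk2 (375 ng/mL stock) with ULight-JAK1 peptide (300 nM stock) and ATP (30 μM stock) in HEPES pH 7.5/MgCl2/EGTA/DTT buffer, 1 h at room temperature. Stopped with EDTA plus Eu-anti-phosphotyrosine antibody; TR-FRET read at 665 nm after 1 h. No-enzyme wells define 100% inhibition.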

Setting [3] is: test compound 10 μM (Ex. 182-220), beside Tyk2 1 μM.

T1 sequence (P23458 whole entry): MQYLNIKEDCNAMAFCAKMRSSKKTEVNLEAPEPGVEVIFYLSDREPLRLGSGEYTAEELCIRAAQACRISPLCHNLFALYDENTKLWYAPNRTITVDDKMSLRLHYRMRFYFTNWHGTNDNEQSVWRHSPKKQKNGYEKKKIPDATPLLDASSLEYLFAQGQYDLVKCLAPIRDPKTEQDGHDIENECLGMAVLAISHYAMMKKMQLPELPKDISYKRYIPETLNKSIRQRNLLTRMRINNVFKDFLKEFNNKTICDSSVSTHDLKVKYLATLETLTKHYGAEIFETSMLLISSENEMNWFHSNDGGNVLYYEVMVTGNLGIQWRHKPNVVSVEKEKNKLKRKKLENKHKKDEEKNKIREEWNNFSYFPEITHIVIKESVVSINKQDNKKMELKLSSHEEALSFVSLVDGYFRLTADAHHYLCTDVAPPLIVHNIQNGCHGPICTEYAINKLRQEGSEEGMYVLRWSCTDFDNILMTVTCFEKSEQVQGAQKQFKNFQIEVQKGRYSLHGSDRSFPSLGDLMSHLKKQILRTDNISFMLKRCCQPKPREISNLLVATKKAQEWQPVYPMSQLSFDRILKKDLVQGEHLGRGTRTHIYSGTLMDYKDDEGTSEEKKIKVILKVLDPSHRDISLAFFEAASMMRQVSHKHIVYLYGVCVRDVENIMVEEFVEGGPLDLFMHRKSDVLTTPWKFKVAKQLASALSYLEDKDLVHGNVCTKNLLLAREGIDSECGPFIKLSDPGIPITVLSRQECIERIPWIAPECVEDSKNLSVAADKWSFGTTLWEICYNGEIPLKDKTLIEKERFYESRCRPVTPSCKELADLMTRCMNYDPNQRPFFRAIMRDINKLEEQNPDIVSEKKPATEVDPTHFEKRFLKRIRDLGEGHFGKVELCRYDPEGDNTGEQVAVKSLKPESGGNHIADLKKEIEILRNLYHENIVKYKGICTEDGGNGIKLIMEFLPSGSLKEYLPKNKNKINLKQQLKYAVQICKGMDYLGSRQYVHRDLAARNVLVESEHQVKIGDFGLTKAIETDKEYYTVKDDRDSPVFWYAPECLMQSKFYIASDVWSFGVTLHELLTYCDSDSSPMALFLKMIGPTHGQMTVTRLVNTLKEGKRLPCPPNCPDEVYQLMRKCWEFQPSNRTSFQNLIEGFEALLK
T2 sequence (P29597 whole entry): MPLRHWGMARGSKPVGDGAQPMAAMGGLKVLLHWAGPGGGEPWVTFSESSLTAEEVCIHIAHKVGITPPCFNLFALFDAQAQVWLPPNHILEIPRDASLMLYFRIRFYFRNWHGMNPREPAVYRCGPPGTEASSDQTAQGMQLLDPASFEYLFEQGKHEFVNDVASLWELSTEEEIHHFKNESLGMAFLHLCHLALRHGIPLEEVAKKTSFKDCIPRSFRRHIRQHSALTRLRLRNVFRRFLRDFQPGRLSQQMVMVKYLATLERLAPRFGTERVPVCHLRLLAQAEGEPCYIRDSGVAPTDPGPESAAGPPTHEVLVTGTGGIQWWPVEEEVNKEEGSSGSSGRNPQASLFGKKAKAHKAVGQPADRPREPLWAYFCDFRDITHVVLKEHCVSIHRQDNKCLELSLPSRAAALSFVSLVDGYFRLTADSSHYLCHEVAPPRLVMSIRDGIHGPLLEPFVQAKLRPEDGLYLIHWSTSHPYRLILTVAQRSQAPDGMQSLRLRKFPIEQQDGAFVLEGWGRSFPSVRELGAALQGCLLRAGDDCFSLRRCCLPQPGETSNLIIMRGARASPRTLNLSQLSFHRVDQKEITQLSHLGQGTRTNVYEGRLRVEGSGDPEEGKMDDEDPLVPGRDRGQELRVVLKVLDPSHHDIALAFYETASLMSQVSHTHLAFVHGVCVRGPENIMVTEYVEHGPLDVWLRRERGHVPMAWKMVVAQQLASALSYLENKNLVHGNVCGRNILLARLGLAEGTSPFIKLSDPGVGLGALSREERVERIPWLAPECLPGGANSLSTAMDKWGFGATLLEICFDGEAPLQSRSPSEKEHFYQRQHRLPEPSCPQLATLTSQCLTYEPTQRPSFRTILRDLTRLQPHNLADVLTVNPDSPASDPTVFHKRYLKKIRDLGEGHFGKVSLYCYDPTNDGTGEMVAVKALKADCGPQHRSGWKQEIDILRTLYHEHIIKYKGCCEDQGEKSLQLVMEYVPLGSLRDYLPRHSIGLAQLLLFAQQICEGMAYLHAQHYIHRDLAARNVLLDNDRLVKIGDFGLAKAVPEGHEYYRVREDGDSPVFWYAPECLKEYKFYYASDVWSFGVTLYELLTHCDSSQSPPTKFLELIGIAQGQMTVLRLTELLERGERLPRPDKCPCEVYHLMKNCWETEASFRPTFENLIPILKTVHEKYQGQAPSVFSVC

Consider `O=C1NCCN1c1ccc(-c2nn(-c3c(F)cccc3F)c3cc[nH]c(=O)c23)cc1` [Example 276, 1-(2,6-difluorophenyl)-3-(4-(2-oxoimidazolidin-1-yl)phenyl)-1,5-dihydro-4H-pyrazolo[4,3-c]pyridin-4-one], for which the inhibition at 1 µM in experiment [1] was determined as 91%; in experiment [2] it was 99%.

As to `N#Cc1cc(F)c(-n2nc(-c3ccc(N4CCOCC4)cc3)c3c(=O)[nH]ccc32)c(F)c1` [Example 244, 3,5-difluoro-4-(3-(4-(morpholin-4-yl)phenyl)-4-oxo-4,5-dihydro-1H-pyrazolo[4,3-c]pyridin-1-yl)benzonitrile], the values for the inhibition at 1 µM in experiment [1] and in experiment [2] were 89% and 97%, respectively.

Consider `CC(=O)c1c[nH]c(=O)c2c(-c3csc(C(N)=O)c3)cn(C3CCCC3)c12` [Example 60, 4-(7-acetyl-1-cyclopentyl-4-oxo-4,5-dihydro-1H-pyrrolo[3,2-c]pyridin-3-yl)thiophene-2-carboxamide], for which the inhibition at 1 µM in experiment [1] was found to be 50%; in experiment [2], 89%.

As for `Cc1ccccc1-c1nn(-c2csc(C(N)=O)c2)c2c(=O)[nH]cc(C#N)c12` [Example 70, 4-(4-cyano-3-(2-methylphenyl)-7-oxo-6,7-dihydro-1H-pyrazolo[3,4-c]pyridin-1-yl)thiophene-2-carboxamide], the inhibition at 1 µM in experiment [1] turned out to be 41%; in experiment [2], 88%.

`O=c1[nH]ccc2c1c(-c1cccc(CN3CCCC3)c1)nn2-c1c(F)cccc1F` [Example 288, 1-(2,6-difluorophenyl)-3-(3-(pyrrolidin-1-ylmethyl)phenyl)-1,5-dihydro-4H-pyrazolo[4,3-c]pyridin-4-one]: the inhibition at 1 µM in experiment [1] worked out at 55%; in experiment [2] it was 94%.

With `CNC(=O)c1ccc(-c2nn(-c3c(F)cccc3F)c3cc[nH]c(=O)c23)c(F)c1` [Example 294, 4-(1-(2,6-difluorophenyl)-4-oxo-4,5-dihydro-1H-pyrazolo[4,3-c]pyridin-3-yl)-3-fluoro-N-methylbenzamide], the inhibition at 1 µM in experiment [1] worked out at 35%; in experiment [2], 92%.

On to `CCC(COC)n1nc(-c2csc(C(N)=O)c2)c2c(=O)[nH]ccc21` (stereo not drawn) [Example 150, 4-(1-(1-methoxybutan-2-yl)-4-oxo-4,5-dihydro-1H-pyrazolo[4,3-c]pyridin-3-yl)thiophene-2-carboxamide], for which the inhibition at 1 µM came to 99% in experiment [1] and 98% in experiment [2].

For the compound `O=C(NC1CC1)c1cc(-c2nn(C3CCCC3)c3cc[nH]c(=O)c23)cs1` [Example 156, 4-(1-cyclopentyl-4-oxo-4,5-dihydro-1H-pyrazolo[4,3-c]pyridin-3-yl)-N-cyclopropylthiophene-2-carboxamide], the inhibition at 1 µM in experiment [1] and in experiment [2] was 100% in each case.

For `O=C1CCCN1c1ccc(-c2nn(-c3c(F)cccc3F)c3c(Cl)c[nH]c(=O)c23)cc1` [Example 195, 7-chloro-1-(2,6-difluorophenyl)-3-(4-(2-oxopyrrolidin-1-yl)phenyl)-1,5-dihydro-4H-pyrazolo[4,3-c]pyridin-4-one], in experiment [1] (setting [3]), the inhibition at 10 µM was determined as 79%. The inhibition at 1 µM in experiment [2] turned out to be 100%.

Turning to `N#Cc1cccc(F)c1-n1nc(-c2ccc(N3CCOCC3)nc2)c2c(=O)[nH]ccc21` [Example 306, 3-fluoro-2-(3-(6-(morpholin-4-yl)pyridin-3-yl)-4-oxo-4,5-dihydro-1H-pyrazolo[4,3-c]pyridin-1-yl)benzonitrile], the values for the inhibition at 1 µM in experiment [1] and in experiment [2] were 90% and 98%, respectively.

In the case of `NS(=O)(=O)c1ccc(-c2nn(-c3c(F)cccc3F)c3cc[nH]c(=O)c23)cc1` [Example 35, 4-(1-(2,6-difluorophenyl)-4-oxo-4,5-dihydro-1H-pyrazolo[4,3-c]pyridin-3-yl)benzenesulfonamide], the inhibition at 1 µM in experiment [1] turned out to be 99%; in experiment [2] it was 97%.

On to `Cn1cc(NC(=O)c2cc(-c3nn(-c4c(F)cccc4F)c4c(Cl)c[nH]c(=O)c34)cs2)cn1` [Example 166, 4-(7-chloro-1-(2,6-difluorophenyl)-4-oxo-4,5-dihydro-1H-pyrazolo[4,3-c]pyridin-3-yl)-N-(1-methyl-1H-pyrazol-4-yl)thiophene-2-carboxamide], for which the inhibition at 1 µM in experiment [1] amounted to 98%; in experiment [2], 100%.

On to `N#Cc1c[nH]c(=O)c2c(-c3ccn[nH]3)cn(C3CCCC3)c12` [Example 125, 1-cyclopentyl-4-oxo-3-(1H-pyrazol-5-yl)-4,5-dihydro-1H-pyrrolo[3,2-c]pyridine-7-carbonitrile hydrochloride], for which the results for the inhibition at 1 µM in experiment [1] and in experiment [2] were 80% and 96%, respectively.

With `CCC1(O)CCC(n2nc(-c3ccc(S(N)(=O)=O)cc3)c3c(=O)[nH]ccc32)CC1` (stereo not drawn) [Example 209, 4-(1-(4-ethyl-4-hydroxycyclohexyl)-4-oxo-4,5-dihydro-1H-pyrazolo[4,3-c]pyridin-3-yl)benzenesulfonamide], in experiment [1] (setting [3]), the inhibition at 10 µM amounted to 99%. In addition, the inhibition at 1 µM in experiment [2] was 99%.

As for `NC(=O)c1cc(-c2nn([C@H]3CC[C@@H](N)CC3)c3cc[nH]c(=O)c23)cs1` [Example 298, 4-(1-(cis-4-aminocyclohexyl)-4-oxo-4,5-dihydro-1H-pyrazolo[4,3-c]pyridin-3-yl)thiophene-2-carboxamide], the inhibition at 10 µM in experiment [1] (test compound 10 μM) amounted to 81%; in experiment [2] (test compound 10 μM, read-out: Inhibitory rate (%) Tyk2 10 μM) it was 58%.

Consider `NC(=O)c1cc(-c2nn(-c3c(F)cccc3F)c3cc[nH]c(=O)c23)cs1` [Example 38, 4-(1-(2,6-difluorophenyl)-4-oxo-4,5-dihydro-1H-pyrazolo[4,3-c]pyridin-3-yl)thiophene-2-carboxamide], for which the inhibition at 1 µM in experiment [1] was 100%; in experiment [2], 99%.

On to `NC(=O)c1ccc(-c2nn(-c3c(F)cccc3F)c3cc[nH]c(=O)c23)cc1` [Example 230, 4-(1-(2,6-difluorophenyl)-4-oxo-4,5-dihydro-1H-pyrazolo[4,3-c]pyridin-3-yl)benzamide], for which the results for the inhibition at 1 µM in experiment [1] and in experiment [2] were 92% and 99%, respectively.

Take `NS(=O)(=O)c1ccc(-c2cn(C3CCOC3)c3cc[nH]c(=O)c23)cc1` (stereo not drawn) [Example 18, 4-(4-oxo-1-(tetrahydrofuran-3-yl)-4,5-dihydro-1H-pyrrolo[3,2-c]pyridin-3-yl)benzenesulfonamide]: the inhibition at 1 µM was 93% in experiment [1] and 80% in experiment [2].

Turning to `CNC(=O)c1cc(-c2cn(C3CCCC3)c3c(C(=O)NC)c[nH]c(=O)c23)cs1` [Example 63, 1-cyclopentyl-N-methyl-3-(5-(methylcarbamoyl)-3-thienyl)-4-oxo-4,5-dihydro-1H-pyrrolo[3,2-c]pyridine-7-carboxamide], the inhibition at 1 µM in experiment [1] was 59%; in experiment [2] it was 51%.

As to `N#Cc1c[nH]c(=O)c2c(-c3ccc(CC(N)=O)cc3)cn(C3CCCC3)c12` [Example 95, 2-(4-(7-cyano-1-cyclopentyl-4-oxo-4,5-dihydro-1H-pyrrolo[3,2-c]pyridin-3-yl)phenyl)acetamide], the inhibition at 1 µM in experiment [1] worked out at 86%; in experiment [2] it was 98%.

On to `N#Cc1c[nH]c(=O)c2c(Nc3cccc(C(N)=O)c3)cn(C3CCCC3)c12` [Example 178, 3-((7-cyano-1-cyclopentyl-4-oxo-4,5-dihydro-1H-pyrrolo[3,2-c]pyridin-3-yl)amino)benzamide], for which the inhibition at 1 µM in experiment [1] was 93%; in experiment [2] it was 99%.

With `N#Cc1c[nH]c(=O)c2c(-c3csc(CC(N)=O)c3)cn(C3CCCC3)c12` [Example 97, 2-(4-(7-cyano-1-cyclopentyl-4-oxo-4,5-dihydro-1H-pyrrolo[3,2-c]pyridin-3-yl)-2-thienyl)acetamide], the results for the inhibition at 1 µM in experiment [1] and in experiment [2] were 97% and 99%, respectively.

Regarding `O=c1[nH]ccc2c1c(Nc1ccccc1)nn2C1CCCC1` [Example 283, 3-anilino-1-cyclopentyl-1,5-dihydro-4H-pyrazolo[4,3-c]pyridin-4-one], the inhibition at 1 µM in experiment [1] worked out at 98%; in experiment [2], 93%.

For the compound `NS(=O)(=O)c1ccc(-c2nn(C3CCC(O)(c4ccccc4)CC3)c3cc[nH]c(=O)c23)cc1` (stereo not drawn) [Example 174, 4-(1-(4-hydroxy-4-phenylcyclohexyl)-4-oxo-4,5-dihydro-1H-pyrazolo[4,3-c]pyridin-3-yl)benzenesulfonamide], the inhibition at 1 µM in experiment [1] came to 99%; in experiment [2], 98%.

As for `N#Cc1c[nH]c(=O)c2c(-c3ccc(N4CCOCC4)cc3)nn(-c3c(F)cccc3F)c12` [Example 229, 1-(2,6-difluorophenyl)-3-(4-(morpholin-4-yl)phenyl)-4-oxo-4,5-dihydro-1H-pyrazolo[4,3-c]pyridine-7-carbonitrile], the results for the inhibition at 1 µM in experiment [1] and in experiment [2] were 81% and 98%, respectively.

For `N#Cc1ccc(-c2nn(C3CCCC3)c3cc[nH]c(=O)c23)cc1` [Example 201, 4-(1-cyclopentyl-4-oxo-4,5-dihydro-1H-pyrazolo[4,3-c]pyridin-3-yl)benzonitrile], in experiment [1] (setting [3]), the inhibition at 10 µM was determined as 96%. Besides, in experiment [2], the inhibition at 1 µM was 97%.

Regarding `CN(C)C(=O)c1cc(-c2nn(C3CCCC3)c3cc[nH]c(=O)c23)cs1` [Example 286, 4-(1-cyclopentyl-4-oxo-4,5-dihydro-1H-pyrazolo[4,3-c]pyridin-3-yl)-N,N-dimethylthiophene-2-carboxamide], the values for the inhibition at 1 µM in experiment [1] and in experiment [2] were 98% and 97%, respectively.
